Earlier results as cited in patent US20040202718A1, “Dosage form for treatment of diabetes mellitus” (priority 2001, published 2004).
Counter-ions that a name gives are not always drawn.

Details: clinical study disclosed in U.S. Pat. No. 5,922,769

For CN(C)C(=N)N=C(N)N [Metformin hydrochloride], the “maximum dose which does not cause any side-effects” value is listed as 1500 mg/day.
